US20250144050A1, “AMINOTHIOL-CONJUGATES, COMPOSITIONS, AND METHODS OF USE THEREOF” (THE BURLINGTON HC RESEARCH GROUP, INC., priority 2021, published 2025)
Like-named read-outs stand apart in the source and are kept apart here.

Columns and labels:
Solubility testing = format: physicochemical
Method: (§1) The solubility of 4SP65 was tested in de-ionized water, PBS, DMSO, and RPMI or DMEM base medium with and without FBS. […] The difference in the starting weight of drug placed into solvent minus the weight of the residue after drying on a vacuum pump was considered to represent the amount of drug that went into solution. The amount of drug that was dissolved at a given time ranged from 40 to 61%, averaging 49.7±8.1% (SD). The weight of the 4SP65 in solution was then used for diluting the drug to concentrations of 200 or 400 μM in supplemented RPMI or DMEM/F12 medium for routine treatment of cells. The dried residue was not used in the in vitro drug efficacy studies. […] However, unintended topical entanglements between polymer chains of multi-arm PEG-thiol molecules without disulfide formation have been reported (Tang and Olsen, “Controlling Topological Entanglement in Engineered Protein Hydrogels with a Variety of Thiol Coupling Chemistries,” Front. Chem. 2:23 (2014), which is hereby incorporated by reference in its entirety). Aliquots of 4SP65 dissolved in FBS enriched medium has remained stable for >6 months while remnants of the original viscous polymer have maintained stability without any apparent loss of activity when stored for 60 months at −20° C.
(§2) The boc deprotected aminothiol conjugated to m-PEG6-thiol was dried on a vacuum pump overnight to yield a viscous oil that on analysis gave rise to spectra corresponding to 1LP65 as a di-trifluroacetic acid salt at a MW of 672.87 Da (FIG. 15), or a MW of 483 once dissolved in solution. As such, 1LP65 is soluble 100% DMSO or aqueous solution. However, the bulk of the product was dissolved at 40 mM in DMSO and stored in aliquots at −80° C. for future use once by further dilution in DMSO and then final dilution in medium for treatment of normal human epithelium and human cancer cell lines at working solutions of 4 mM or 400 μM drug. 1LP65 has maintained stability for six months in frozen aliquots but should be stable in DMSO at −80° C. for two to three years based upon recommended storage conditions for cystamine dihydrochloride (Selleck Chemical product information), an analogous 225 Da compound with a disulfide bond and amine groups like 1LP65.

MDA-MB-231 cells = assay: CyQUANT cell viability assay, 48-hour exposure; format: cell-based, human
Method: (§3) After drug treatments, fluorescence readings from 96-well plates were obtained using the CyQUANT dye and compared to standard curves for each cell line to determine cell viability. […] Trypan blue exclusion was used to estimate cell numbers in a few pilot experiments and was thereafter applied to confirm cell death.
(§4) A series of experiments was conducted to assess the relative efficacy of 4SP65, 1LP65, and amifostine as single agents in the same human cancer cell lines. First, the effectiveness of 4SP65 was tested against 15 cancer cell lines derived from seven tissues. […] The effectiveness of 0 to ≤500 μM amifostine was tested in sets of cancer cell lines reported to have either medium, high, or no expression of alkaline phosphatase.
(§5) Trans. R Soc. Lond. […] Using cell numbers based on fluorescence measurements and standard curves [time zero, (Tz), control growth, (C), and test growth in the presence of drug at five or more concentration levels (Ti)], the percentage growth was calculated at each drug concentration level. The percentage of growth inhibition was calculated as follows:
(§6) The LC50/99 was calculated using Equation 2=−50 and Eq. 2=−99, respectively. […] For NHMECs, the relationships between drug exposure levels and fluorescence units were used to define dose-response metrics. The selectivity index (SI) values for individual drug treatments were calculated as IC50 levels in NHMECs divided by the IC50 values in cancer cell lines.

Storage stability = format: physicochemical
Method: as §1
as §2, with “1LP65 has maintained stability for six months in frozen aliquots but should be stable in DMSO at −80° C. for two to three years based upon recommended storage conditions for cystamine dihydrochloride (Selleck Chemical product information), an analogous 225 Da compound with a disulfide bond and amine groups like 1LP65.” left out

Vero cells = assay: Dose-response metrics in immortalized, non-tumorigenic cells; format: cell-based
Method: To determine potential cytostatic or cytocidal effects of BRG prodrugs in immortalized, non-tumorigenic cells, Vero, HEK-293t, LP9, and HPM3 cells were exposed to 4SP65 while only Vero cells also were treated with 1LP65. […] Comparisons across other dose-response metrics could not be made because such levels of effects were not induced in NHMECs exposed to 4SP65. […] Since cytostatic and cytolytic effects at the TGI and LC50/99 levels were induced in Vero cells exposed to 1LP65 but not in NHMECs, there is a significant difference in the effects of 1LP65 in Vero cells compared to NHMECs, but p values based upon t-test evaluations cannot be defined due to lack of numerical data.

human cancer cell lines = assay: CyQUANT cell viability assay, 48-hour exposure, panel averages; settings: for fold greater cytostatic effect than amifostine: HCC38, PC3, SKOV3, TOV21G (amifostine GI50 <100 μM); for fold more potent than amifostine as a cytostatic agent, averaging: averages of dose-response metrics across panel
Method: as §3, §4, §5, §6

[1] = 48-hour, 15 cancer cell lines (4SP65), 11 (1LP65)

4-star PEG-S-S-WR1065 [4SP65]
highest level that could be tested based upon maximum solubility in aqueous medium (Solubility testing; aqueous medium): 150 µM
amount of drug that was dissolved, averaging (SD) (Solubility testing; aqueous solvents/medium): 49.7±8.1%
solubility (Solubility testing; de-ionized water, PBS, DMSO, RPMI or DMEM base medium with and without FBS): partially soluble in all media evaluated except DMSO
concentration above which a hydrogel forms (Solubility testing; in medium): above 300 micromolar
selectivity index (MDA-MB-231 cells; IC50 of 76 in most sensitive NHMEC strain / IC50 in MDA-MB-231): > 16
time remained stable (Storage stability; dissolved in FBS enriched medium): > 6 months
time stability maintained without apparent loss of activity (Storage stability; original viscous polymer stored at −20° C.): 60 months
CC50 (Vero cells): 11.6 ± 6.3 µM
GI50 (Vero cells; VERO): 2.9 ± 1.4 µM
LC99 (Vero cells; VERO): 14.0 ± 9.9 µM
TGI (Vero cells; VERO): 6.4 ± 2.6 µM
fold greater potency than predicted by ratio of four vs one WR1065/molecule (human cancer cell lines; 4SP65 versus 1LP65): ~2.5 fold
LC99, average across cell lines (human cancer cell lines; [1]): 11.2 µM
LC99, range (human cancer cell lines; [1]): 3.0 to 21.1 µM
TGI, average across cell lines (human cancer cell lines; [1]): 6.8 ± 1.1 µM
TGI, range (human cancer cell lines; [1]): 2.0 to 16.3 µM
fold greater cytostatic effect than amifostine (human cancer cell lines): 38 fold
fold more potent than 1LP65, averaging (human cancer cell lines; across dose-response metrics): 10.4 fold
fold more potent than amifostine as a cytostatic agent, averaging (human cancer cell lines): 55 fold
GI50 (human cancer cell lines; read-out: GI50, average across cell lines, 48-hour, 15 cancer cell lines (4SP65), 11 (1LP65)): 4.1 ± 0.8 µM
GI50 (human cancer cell lines; read-out: average GI50, HCC38, PC3, SKOV3, and TOV21G): 1.7 µM

COCCOCCOCCOCCOCCOCCSSCCNCCCN [1LP65, m-PEG6-S-S-WR1065]
solubility (Solubility testing; 100% DMSO or aqueous solution): soluble
GI50 (MDA-MB-231 cells; Homo sapiens, MDA-MB-231 cells, 48 hours): 41.8 µM
time stability maintained (Storage stability; frozen aliquots, 40 mM in DMSO at −80° C.): six
GI50 (Vero cells; Chlorocebus sabaeus, Vero): 46.6 ± 2.6 µM
LC99 (Vero cells; VERO): 183.4 ± 6.2 µM
TGI (Vero cells; VERO): 82.8 ± 2.9 µM
LC99, average across cell lines (human cancer cell lines; [1]): 126 ± 15.8 µM
LC99, range (human cancer cell lines; [1]): 83.5 to 234 µM
TGI, average across cell lines (human cancer cell lines; [1]): 69.3 ± 10.3 µM
TGI, range (human cancer cell lines; [1]): 32.7 to 126 µM
fold greater cytostatic effect than amifostine (human cancer cell lines): 2.1 fold
GI50 (human cancer cell lines; Homo sapiens, 48 h, read-out: GI50, average across cell lines, 48-hour, 15 cancer cell lines (4SP65), 11 (1LP65)): 41.2 ± 5.4 µM
GI50 (human cancer cell lines; Homo sapiens, 48 h, read-out: GI50, range for individual cell lines, 48-hour, 15 cancer cell lines (4SP65), 11 (1LP65)): 21.3 to 77.7 µM
CC50 (human cancer cell lines; Homo sapiens, 48 h, read-out: LC50, average across cell lines): 94.6 ± 12.8 µM
CC50 (human cancer cell lines; Homo sapiens, 48 h, read-out: LC50, range): 51.3 to 157 µM
GI50 (human cancer cell lines; Homo sapiens, read-out: average GI50, HCC38, PC3, SKOV3, and TOV21G): 30.4 µM
fold more potent than amifostine as a cytostatic agent, averaging (human cancer cell lines): 5.9 fold
